Test results published in the supplement of paper PMC10307832.

Experiments:
Assay in all cases: relative viability (nuclei count vs DMSO), 5 days (fraction); higher = more cells survive
Obatoclax + Pemetrexed = compound: COC1=CC(c2cc3ccccc3[nH]2)=N/C1=C\c1[nH]c(C)cc1C [Obatoclax] + Nc1nc2[nH]cc(CCc3ccc(C(=O)N[C@@H](CCC(=O)O)C(=O)O)cc3)c2c(=O)[nH]1 [Pemetrexed] (partner 0.2 µM)
In short: (§1)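 For relative viability, nuclei counts in treated wells were divided by those in vehicle wells. Lung cancer cell lines had been pin-tool dosed in 1536-well plates the day after seeding and cultured for 5 days, then fixed and stained in one step (final 0.05% Triton X-100, 1% formaldehyde, 1 ug/ml Hoechst) and imaged at 4×. Doses were one drug alone or a fixed anchor-drug dose plus five library-drug doses (not always all listed) in √10 steps, and values are duplicate-plate medians.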

Bortezomib + Phenformin = compound: CC(C)C[C@H](NC(=O)[C@H](Cc1ccccc1)NC(=O)c1cnccn1)B(O)O [Bortezomib] + N=C(N)NC(=N)NCCc1ccccc1 [Phenformin] (partner 250 µM)
In short: as §1

Obatoclax + Bortezomib = compound: COC1=CC(c2cc3ccccc3[nH]2)=N/C1=C\c1[nH]c(C)cc1C [Obatoclax] + CC(C)C[C@H](NC(=O)[C@H](Cc1ccccc1)NC(=O)c1cnccn1)B(O)O [Bortezomib] (partner 0.002 µM)
In short: as §1

[1] = compound: CC1=CC(=NN1)NC2=CC(=NC(=N2)/C=C/C3=CC=CC=C3)N4CCN(CC4)C + O=C(c1cc(Cc2n[nH]c(=O)c3ccccc23)ccc1F)N1CCN(C(=O)C2CC2)CC1 [Olaparib] (partner 8 µM)
In short: as §1

Row | Cell Line | relative viability (Obatoclax + Pemetrexed; first compound 0.01 µM) | relative viability (Obatoclax + Pemetrexed; first compound 0.03162 µM) | relative viability (Obatoclax + Pemetrexed; first compound 0.1 µM) | relative viability (Obatoclax + Pemetrexed; first compound 0.3162 µM) | relative viability (Obatoclax + Pemetrexed; first compound 1 µM) | relative viability (Bortezomib + Phenformin; first compound 0.0002 µM) | relative viability (Bortezomib + Phenformin; first compound 0.000632 µM) | relative viability (Bortezomib + Phenformin; first compound 0.002 µM) | relative viability (Bortezomib + Phenformin; first compound 0.006325 µM) | relative viability (Bortezomib + Phenformin; first compound 0.02 µM) | relative viability (Obatoclax + Bortezomib; first compound 0.01 µM) | relative viability (Obatoclax + Bortezomib; first compound 0.03162 µM) | relative viability (Obatoclax + Bortezomib; first compound 0.1 µM) | relative viability (Obatoclax + Bortezomib; first compound 0.3162 µM) | relative viability (Obatoclax + Bortezomib; first compound 1 µM) | relative viability ([1]; first compound 0.08 µM) | relative viability ([1]; first compound 0.253 µM) | relative viability ([1]; first compound 0.8 µM) | relative viability ([1]; first compound 2.53 µM) | relative viability ([1]; first compound 8 µM)
1 | HARA | 0.236 | 0.293 | 0.249 | 0.262 | 0.303 | 0.374 | 0.447 | 0.512 | 0.222 | 0.0528 | 1.1 | 0.759 | 1.17 | 1.02 | 0.724 | 0.617 | 1.01 | 0.582 | 0.121 | 0.099
2 | HCC-15 | 0.215 | 0.234 | 0.215 | 0.225 | 0.228 | 0.44 | 0.448 | 0.458 | 0.0952 | 0.0863 | 0.973 | 1.02 | 0.926 | 0.957 | 0.739 | 0.748 | 0.611 | 0.718 | 0.298 | 0.113
3 | IA-LM |  |  |  |  |  |  |  |  |  |  | 0.838 | 0.723 | 0.727 | 0.0591 | 0.0714 | 0.839 | 0.899 | 0.981 | 1.02 | 0.174
4 | LK-2 | 0.273 | 0.227 | 0.248 |  | 0.317 | 0.416 | 0.282 | 0.514 | 0.131 | 0.149 |  |  |  |  |  | 0.699 | 0.772 | 0.684 | 0.29 | 0.0845
5 | NCI-H358 | 0.159 | 0.185 | 0.166 | 0.192 | 0.14 | 0.316 | 0.305 | 0.354 | 0.0576 | 0.0696 |  |  |  |  |  | 0.505 | 0.644 | 0.486 | 0.209 | 0.068
6 | NCI-H522 | 0.955 | 1 | 1.33 | 1.09 | 0.872 | 0.58 | 0.618 | 0.573 | 0.62 | 0.448 |  |  |  |  |  | 0.64 | 0.647 | 0.61 | 0.472 | 0.319
7 | NCI-H727 |  |  |  |  |  | 0.542 | 0.475 | 0.548 | 0.301 | 0.178 | 0.892 | 0.827 | 1.17 | 0.847 | 0.335 | 0.708 | 0.635 | 0.791 | 0.722 | 0.44
8 | NCI-H1299 |  |  |  |  |  |  |  |  |  |  | 0.969 | 1.05 | 0.982 | 1 | 0.93 | 0.961 | 0.924 | 0.975 | 0.616 | 0.167
9 | NCI-H1395 | 0.84 | 0.781 | 0.827 | 0.711 | 0.657 | 0.477 | 0.435 | 0.446 | 0.361 | 0.27 |  |  |  |  |  | 0.472 | 0.462 | 0.445 | 0.355 | 0.278
10 | NCI-H1563 | 0.803 | 0.713 | 0.583 | 0.727 | 0.896 | 0.742 | 0.659 | 0.636 | 0.518 | 0.465 | 0.905 | 0.883 | 0.835 | 0.714 | 0.833 |  |  |  |  | 
11 | NCI-H1623 |  |  |  |  |  | 0.538 | 0.594 | 0.623 | 0.577 | 0.307 |  |  |  |  |  |  |  |  |  | 
12 | NCI-H1648 | 0.758 | 0.746 | 1.06 | 0.64 | 0.782 |  |  |  |  |  |  |  |  |  |  | 0.979 | 0.797 | 0.813 | 0.747 | 0.361
13 | NCI-H1703 |  |  |  |  |  |  |  |  |  |  | 0.456 | 0.38 | 0.304 | 0.227 | 0.22 | 0.355 | 0.392 | 0.167 | 0.168 | 0.0731
14 | NCI-H1793 | 0.91 | 0.924 | 0.727 | 0.838 | 0.878 | 0.366 | 0.242 | 0.368 | 0.344 | 0.169 |  |  |  |  |  | 0.845 | 1.06 | 0.667 | 0.138 | 0.0993
15 | NCI-H1944 | 0.649 | 0.551 | 0.638 | 0.608 | 0.602 | 0.198 | 0.185 | 0.213 | 0.201 | 0.155 |  |  |  |  |  | 0.416 | 0.406 | 0.467 | 0.29 | 0.207
16 | NCI-H2170 | 0.257 | 0.243 | 0.266 | 0.276 | 0.283 | 0.43 | 0.419 | 0.462 | 0.326 | 0.208 |  |  |  |  |  | 0.512 | 0.65 | 0.577 | 0.263 | 0.102
17 | NCI-H2342 | 0.836 | 0.775 | 0.683 | 0.641 | 0.757 | 0.653 | 0.508 | 0.574 | 0.714 | 0.566 |  |  |  |  |  | 0.411 | 0.419 | 0.417 | 0.412 | 0.268
18 | SK-MES-1 | 1.02 | 0.904 | 0.874 | 0.776 | 0.292 | 0.648 | 0.6 | 0.608 | 0.269 | 0.15 |  |  |  |  |  | 0.667 | 0.776 | 0.566 | 0.126 | 0.134
19 | SW 900 | 0.494 | 0.303 | 0.527 | 0.48 | 0.446 | 0.534 | 0.548 | 0.13 | 0.123 | 0.0977 |  |  |  |  |  | 0.863 | 0.89 | 0.805 | 0.298 | 0.107
